Measurements: ChEMBL document CHEMBL1122447, “2-Acetylpyridine thiosemicarbazones. 5. 1-[1-(2-Pyridyl)ethyl]-3-thiosemicarbazides as potential antimalarial agents” (1983)

Columns and labels:
Plasmodium berghei [1] = test: Increased mean survival time in drug-sensitive Plasmodium berghei infected mice (Mus musculus) at 640 mg/kg; cured 2 of 5; type: functional, organism-based; set-up: dose 640 mg/kg
Plasmodium berghei [2] = test: Increased mean survival time in drug-sensitive Plasmodium berghei in mice (Mus musculus) at 80 mg/kg dose; type: functional
Plasmodium berghei [3] = test: Increased mean survival time in drug-sensitive Plasmodium berghei infected mice (Mus musculus) at 160 mg/kg; cured 1 of 5; type: functional, organism-based; set-up: dose 160 mg/kg
Plasmodium berghei [4] = test: Increased mean survival time in drug-sensitive Plasmodium berghei infected mice (Mus musculus) at 40 mg/kg dose; type: functional
Plasmodium berghei [5] = test: Increased mean survival time in drug-sensitive Plasmodium berghei infected mice (Mus musculus) at 20 mg/kg dose; type: functional
Plasmodium berghei [6] = test: Increased mean survival time in drug-sensitive Plasmodium berghei infected mice (Mus musculus) at 320 mg/kg; cured 3 of 5; type: functional, organism-based; set-up: dose 320 mg/kg
Plasmodium berghei [7] = test: Increased mean survival time in drug-sensitive Plasmodium berghei infected mice (Mus musculus) at 320 mg/kg; cured 4 of 5
Plasmodium berghei [8] = test: Increased mean survival time in drug-sensitive Plasmodium berghei infected mice (Mus musculus) at 640 mg/kg dose; type: functional
Plasmodium berghei [9] = test: Increased mean survival time in drug-sensitive Plasmodium berghei infected mice (Mus musculus) at 160 mg/kg; cured 2 of 5; type: functional, organism-based; set-up: dose 160 mg/kg
Plasmodium berghei [10] = test: Antimalarial activity against Plasmodium berghei infected mice (Mus musculus) at 160 mg/kg; toxic in 3 of 5; type: functional, organism-based; set-up: dose 160 mg/kg
Plasmodium berghei [11] = test: Increased mean survival time in drug-sensitive Plasmodium berghei infected mice (Mus musculus) at 5 mg/kg; cured 2 of 5; type: functional
Plasmodium berghei [12] = test: Antimalarial activity against Plasmodium berghei infected mice (Mus musculus) at 20 mg/kg; toxic in 1 of 5; type: functional, organism-based; set-up: dose 20 mg/kg
Plasmodium berghei [13] = test: Increased MST in drug-sensitive Plasmodium berghei infected mice (Mus musculus) at 10 mg/kg; […]; type: functional, organism-based; set-up: dose 10 mg/kg
Plasmodium berghei [14] = test: Antimalarial activity against Plasmodium berghei infected mice (Mus musculus) at 40 mg/kg; toxic in 5 of 5; type: functional, organism-based; set-up: dose 40 mg/kg
Plasmodium berghei [15] = test: Antimalarial activity against Plasmodium berghei infected mice (Mus musculus) at 640 mg/kg; toxic in 5 of 5; type: functional, organism-based; set-up: dose 640 mg/kg
Plasmodium berghei [16] = test: Increased mean survival time in drug-sensitive Plasmodium berghei infected mice (Mus musculus) at 40 mg/kg; cured 4 of 5; type: functional, organism-based; set-up: dose 40 mg/kg
Plasmodium berghei [17] = test: Increased mean survival time in drug-sensitive Plasmodium berghei infected mice (Mus musculus) at 80 mg/kg; cured 5 of 5; type: functional, organism-based; set-up: dose 80 mg/kg
Plasmodium berghei [18] = test: Increased mean survival time in drug-sensitive Plasmodium berghei infected mice (Mus musculus) at 640 mg/kg; toxic in 5 of 5; type: functional, organism-based; set-up: dose 640 mg/kg
Plasmodium berghei [19] = test: Increased mean survival time in drug-sensitive Plasmodium berghei infected mice (Mus musculus) at 20 mg/kg; cured 3 of 5; type: functional, organism-based; set-up: dose 20 mg/kg
Plasmodium berghei [20] = test: Increased mean survival time in drug-sensitive Plasmodium berghei infected mice (Mus musculus) at 320 mg/kg dose; type: functional
Plasmodium berghei [21] = test: Antimalarial activity against Plasmodium berghei infected mice (Mus musculus) at 160 mg/kg; cured 1 of 5; type: functional, organism-based; set-up: dose 160 mg/kg
Plasmodium berghei [22] = test: Antimalarial activity against Plasmodium berghei infected mice (Mus musculus) at 40 mg/kg; cured 1 of 5; type: functional, organism-based; set-up: dose 40 mg/kg
Plasmodium berghei [23] = test: Increased mean survival time in drug-sensitive Plasmodium berghei infected mice (Mus musculus) at 320 mg/kg; toxic in 4 of 5; type: functional, organism-based; set-up: dose 320 mg/kg
Plasmodium berghei [24] = test: Increased mean survival time in drug-sensitive Plasmodium berghei infected mice (Mus musculus) at 160 mg/kg; toxic in 1 of 5; type: functional, organism-based; set-up: dose 160 mg/kg
Plasmodium berghei [25] = test: Increased mean survival time in drug-sensitive Plasmodium berghei infected mice (Mus musculus) at 160 mg/kg; toxic in 5 of 5; type: functional, organism-based; set-up: dose 160 mg/kg
Plasmodium berghei [26] = test: Increased mean survival time in drug-sensitive Plasmodium berghei infected mice (Mus musculus) at 40 mg/kg; toxic in 2 of 5; type: functional, organism-based; set-up: dose 40 mg/kg
Plasmodium berghei [27] = test: Increase in mean survival time in drug-sensitive Plasmodium berghei infected mice (Mus musculus) at 160 mg/kg dose; cured 1 of 5; type: functional, organism-based; set-up: dose 160 mg/kg
Plasmodium berghei [28] = test: Increased mean survival time in drug-sensitive Plasmodium berghei infected mice (Mus musculus) at 320 mg/kg; cured 2 of 5; type: functional, organism-based; set-up: dose 320 mg/kg
Plasmodium berghei [29] = test: Increased mean survival time in drug-sensitive Plasmodium berghei infected mice (Mus musculus) at 640 mg/kg; cured 3 of 5; type: functional, organism-based; set-up: dose 640 mg/kg
Plasmodium berghei [30] = test: Antimalarial activity as increased MST in Plasmodium berghei infected mice (Mus musculus) at 40 mg/kg; type: functional
Plasmodium berghei [31] = test: Antimalarial activity as increased MST in Plasmodium berghei infected mice (Mus musculus) at 160 mg/kg; type: functional
Plasmodium berghei [32] = test: Antimalarial activity as increased MSTin Plasmodium berghei infected mice (Mus musculus) at 640 mg/kg; Toxic in 3 of 5; type: functional
Plasmodium berghei [33] = test: Increased mean survival time in drug-sensitive Plasmodium berghei infected mice (Mus musculus) at 640 mg/kg; toxic in 2 of 5; type: functional
Plasmodium berghei [34] = test: Increase in mean survival time in drug-sensitive Plasmodium berghei infected mice (Mus musculus) at 160 mg/kg dose; type: functional
Plasmodium berghei [35] = test: Antimalarial activity as increased MST in Plasmodium berghei infected mice (Mus musculus) at 20 mg/kg; type: functional
Plasmodium berghei [36] = test: Antimalarial activity as increased MST in Plasmodium berghei infected mice (Mus musculus) at 40 mg/kg; Toxic in 1 of 5; type: functional
Plasmodium berghei [37] = test: Antimalarial activity against Plasmodium berghei infected mice (Mus musculus) at 320 mg/kg; toxic in 5 of 5; type: functional, organism-based; set-up: dose 320 mg/kg

In the case of `CC(N/N=C(\[SeH])N1CCCCCC1)c1ccccn1` (stereo not drawn), the Survival time (Plasmodium berghei [1]) was “Cured 2 of 5 mice; toxic in 2 of 5 mice”, the Survival time (Plasmodium berghei [2]) was 6.1 days and the Survival time (Plasmodium berghei [3]) was “Cured 1 of 5 mice”. The Survival time (Plasmodium berghei [4]) was 5.9 days, the Survival time (Plasmodium berghei [5]) was 0.3 days and the Survival time (Plasmodium berghei [6]) was “Cured 3 of 5 mice; toxic in 2 of 5 mice”.
For `C/C(=N\N=C(/S)N(C)C1CCCCC1)c1ccccn1`, the Survival time (Plasmodium berghei [7]) was “Cured 4 of 5 mice”, the Survival time (Plasmodium berghei [2]) was 9.6 days and the Survival time (Plasmodium berghei [8]) was 12.1 days. The Survival time (Plasmodium berghei [9]) was “Cured 2 of 5 mice” and the Survival time (Plasmodium berghei [4]) was 3.7 days.
In the case of `CC(N/N=C(\S)N1CC2CCC(CC2)C1)c1ccccn1` (stereo not drawn), the Survival time (Plasmodium berghei [10]) was “Toxic in 3 of 5 mice”, the Survival time (Plasmodium berghei [11]) was 7.9 days and the Survival time (Plasmodium berghei [3]) was “Cured 1 of 5 mice”. The Survival time (Plasmodium berghei [12]) was “Cured 4 of 5 mice; toxic in 1 of 5 mice”, the Survival time (Plasmodium berghei [13]) was “Cured 2 of 5 mice” and the Survival time (Plasmodium berghei [14]) was “Toxic in 5 of 5 mice”. The Survival time (Plasmodium berghei [15]) was “Toxic in 5 of 5 mice”.
With `C/C(=N\NC(=S)N1CCN(c2ccccn2)CC1)c1ccccn1` the Survival time (Plasmodium berghei [16]) was “Cured 4 of 5 mice”, the Survival time (Plasmodium berghei [17]) was “Cured 5 of 5 mice” and the Survival time (Plasmodium berghei [9]) was “Cured 2 of 5 mice”. The Survival time (Plasmodium berghei [18]) was “Toxic in 5 of 5 mice”, the Survival time (Plasmodium berghei [19]) was “Cured 3 of 5 mice” and the Survival time (Plasmodium berghei [20]) was 0.7 days.
With `CC1CCN(/C(S)=N/NC(C)c2ccccn2)CC1` (stereo not drawn) the Survival time (Plasmodium berghei [10]) was “Toxic in 3 of 5 mice”, the Survival time (Plasmodium berghei [21]) was “Cured 1 of 5 mice” and the Survival time (Plasmodium berghei [22]) was “Cured 1 of 5 mice”. For the same compound, the Survival time (Plasmodium berghei [15]) was “Toxic in 5 of 5 mice”.
For `CC(N/N=C(\[SeH])N1CC2CCC(CC2)C1)c1ccccn1` (stereo not drawn), the Survival time (Plasmodium berghei [23]) was “Cured 4 of 5 mice; toxic in 1 of 5 mice”, the Survival time (Plasmodium berghei [2]) was 5.5 days and the Survival time (Plasmodium berghei [8]) was -0.3 days. The Survival time (Plasmodium berghei [4]) was 0.5 days, the Survival time (Plasmodium berghei [24]) was “Cured 2 of 5 mice” and the Survival time (Plasmodium berghei [5]) was -0.3 days.
For `CCOC(=O)N1CCN(/C(S)=N/N=C(\C)c2ccccn2)CC1`, the Survival time (Plasmodium berghei [25]) was “Toxic in 5 of 5 mice”, the Survival time (Plasmodium berghei [26]) was “Cured 2 of 5 mice; toxic in 2 of 5 mice” and the Survival time (Plasmodium berghei [18]) was “Toxic in 5 of 5 mice”.
With `C/C(=N\N=C(/[SeH])N1CC2CCC(CC2)C1)c1ccccn1` the Survival time (Plasmodium berghei [2]) was 5.9 days, the Survival time (Plasmodium berghei [27]) was “Cured 1 of 5 mice” and the Survival time (Plasmodium berghei [28]) was “Cured 2 of 5 mice”. For the same compound, the Survival time (Plasmodium berghei [29]) was “Cured 3 of 5 mice”, the Survival time (Plasmodium berghei [4]) was 0.8 days and the Survival time (Plasmodium berghei [5]) was -0.1 days.
`CC(N/N=C(\S)NCc1ccccc1)c1ccccn1` (stereo not drawn) showed a Survival time (Plasmodium berghei [30]) of -0.1 days, a Survival time (Plasmodium berghei [31]) of 0.7 days and a Survival time (Plasmodium berghei [32]) of 2.4 days.
Work on `C/C(=N\N=C(/S)NCc1ccccc1)c1ccccn1` yielded a Survival time (Plasmodium berghei [33]) of 10.6 days, a Survival time (Plasmodium berghei [4]) of 0.5 days and a Survival time (Plasmodium berghei [34]) of 3.7 days.
In the case of `C/C(=N\N=C(/[SeH])N1CCCCCC1)c1ccccn1`, the Survival time (Plasmodium berghei [1]) was “Cured 2 of 5 mice”, the Survival time (Plasmodium berghei [2]) was 4.6 days and the Survival time (Plasmodium berghei [28]) was “Cured 2 of 5 mice”. The Survival time (Plasmodium berghei [4]) was 1.7 days and the Survival time (Plasmodium berghei [34]) was 7.3 days.
For `CC(N/N=C(\S)N(C)C)c1ccccn1` (stereo not drawn), the Survival time (Plasmodium berghei [35]) was 2 days, the Survival time (Plasmodium berghei [36]) was 3.2 days and the Survival time (Plasmodium berghei [37]) was “Toxic in 5 of 5 mice”. The Survival time (Plasmodium berghei [15]) was “Toxic in 5 of 5 mice”.
